Results on one compound are retold here after US20090076029A1 (Palatin Technologies, Inc., priority 2007, published 2009).

The structures appear in SMILES notation.

One assay has as its system T1, hMC5-R.
T1 construct: expressed in transfected cells; host or cells: HEK-293
Nature of the assay: cAMP functional assay, HEK-293 cells expressing hMC5-R. To be noted: cAMP assay at 1 μM. The class given is cell-based, human. In general terms: Changes in cAMP serve as a functional read-out for many G protein-coupled receptors.

In another assay the test system is T2, MC4-R.
T2 construct: expressed in transfected cells; host or cells: HEK-293
The class given is cell-based. The protocol: Antagonists of AgRP. […] The experimental protocol was essentially as described above for the antagonist assay. […] HEK-293 cells expressing MC4-R were suspended in 10 mM HEPES (pH 7.5) and Earle's Balanced Salt Solution with the phosphodiesterase inhibitor IBMX. The cells were pre-incubated for 30 minutes with the test compounds over a concentration of 0.5 nM to 5000 nM. The cells were then treated with AgRP (100 nM) and incubated for 1 hour. Cells were lysed and cAMP was measured using an EIA kit (Amersham).

For a further assay, the system named is T3, mutant L250Q MC4-R.
T3 construct: expressed in transfected cells
Nature of the assay: Reversal of AgRP inverse agonism in cells expressing mutant L250Q MC4-R. The assay is classed as cell-based, human. To be noted: HEK-293 cells expressing mutant L250Q MC4 receptors; FIG. 8. The text has this: Expression of recombinant mutant hMC4-R in which a glutamine is exchanged for leucine in amino acid position 250 (L250Q) results in production of increased levels of cAMP in the absence of agonist (Vaisse C. et al., Melanocortin-4 receptor mutations are a frequent and heterogeneous cause of morbid obesity. J Clin Invest 106:253-262, 2000). In some cases, reversal of the inverse agonist activity of AgRP was examined in cells that expressed mutant L250Q MC4-R coupled to a high level of constitutive activity. FIG. 8 illustrates the results obtained with the mutant L250Q MC4-R system.

The target of assay [1] is T4, MC1-R.
T4 construct: other: 1 μM compound
Briefly: Competitive inhibition assay using [I125]-NDP-α-MSH, MC1-R membranes. The class given is binding, mouse.

Assay [2] concerns T5, MC1-R.
T5 construct: from B-16 mouse melanoma cells (containing MC1-R); endogenous in cells; host or cells: B-16 mouse melanoma cells
Nature of the assay: cAMP functional assay, B-16 mouse melanoma cells expressing MC1-R. The class given is cell-based. As to conditions: cAMP assay at 1 μM.

In general, Ki refers to the dissociation constant of the complex between target and ligand, obtained from inhibition or displacement. A higher Ki goes with lower affinity. As usually defined, the Inhibition is the percentage by which the read-out fell short of the control. Low values mean a weak effect, high ones a strong effect. For `CC(C)C[C@@H]1CN(C(=O)[C@H](N)Cc2ccc(Cl)cc2Cl)[C@@H](CCCNC(=N)N)CN1CCc1ccc2ccccc2c1` [Example 4, N-{3-[1-[2(R)-Amino-3-(2,4-dichloro-phenyl)-propionyl]-5(R)-isobutyl-4-(2-naphthalen-2-yl-ethyl)-piperazin-2(S)-yl]-propyl}-guanidine], in the assay on hMC5-R, the “functional status at MC5-R” value is “partial agonist (intrinsic activity between 0.1 (10%) and 0.7 (70%) is classified as a partial agonist)”. The “activity on AgRP induced inverse agonism” value in the assay with MC4-R is on record as “antagonistic activity”. The “effect on AgRP-induced decrease in cAMP levels” value in the assay on mutant L250Q MC4-R is recorded as “reversal of AgRP-induced decrease in the levels of cAMP”. The affinity on MC1-R [1], expressed as Ki, was 1360 nM. Besides, the “Inhibition at 1 μM (NDP-α-MSH) MC1-R” value in the assay with MC1-R [1] (1 μM compound) was determined as 21%. For the same compound, in the assay on MC1-R [2], the “functional status at MC1-R” value was “no intrinsic activity (intrinsic activity below 0.1 (10%) is classified as inactive or having no intrinsic activity)”.
